Reference: patent US5491216A, “Tri-arginine insulins” (Eli Lilly and Company, priority 1993, dated 1996)

Columns and labels:
[1] = system: New Zealand White rabbits; test: Hypoglycemic activity after subcutaneous injection in fasted rabbits (blood glucose, percent of original); assay type: in vivo, rabbit; conditions: for Percent of Original Blood Glucose: added zinc 0 mg/ml, 0.2 U/kg s.c., 40 U/ml, n = 10 rabbits
Procedure: Solutions were prepared containing various amounts of zinc (0-2.4 mg/ml) in the form of zinc chloride. Glacial acetic acid was used to solublize each of the solutions at a final pH range of pH 4-6.
New Zealand White rabbits, mostly female, all weighing 0 2.7-4 kg, 0.5-4 years of age and fasted 16 hours prior to administration of sample were used for testing.
At various times, 100 μl volumes of blood were obtained from the marginal ear veins, mixed with 900 μl volumes of anticoagulant (EDTA-sodium fluoride) and analyzed for glucose content. The glucose values were standardized to reflect percent of original blood glucose measured prior to sample injection.

[2] = standardized value used in the formula for test solutions; cited from earlier work

Substance	Percent of Original Blood Glucose ([1]; 1 hour after injection) [%]	Percent of Original Blood Glucose ([1]; 2 hours after injection) [%]	Percent of Original Blood Glucose ([1]; 4 hours after injection) [%]	Percent of Original Blood Glucose ([1]; 6 hours after injection) [%]	hypoglycemic activity ([1]; result in words, animal model)	standardized value (potency per mg protein) [2] [U/mg]
Des(64) HPI: split(64) proinsulin wherein Lys-64 is removed	63.1	70.5	90.6	90.0	hypoglycemic activity of its own	–
human insulin: natural human insulin, reference for biopotency	–	–	–	–	–	28.85
